This note sets out measurements from US20090062255A1, “TUMOR-TARGETING EVALUATION METHODOLOGY AND COMPOUNDS RELATED THERETO” (THALLION PHARMACEUTICALS INC., priority 2007, published 2009).

Usually inhibition stands for the drop in the measured response relative to a control, in per cent.

One series concerns the target T1, Cyclooxygenase-2 (COX-2) (Homo sapiens, UniProt P35354).
T1 construct: host or cells: insect Sf21 cells
T1 sequence (P35354 18-604): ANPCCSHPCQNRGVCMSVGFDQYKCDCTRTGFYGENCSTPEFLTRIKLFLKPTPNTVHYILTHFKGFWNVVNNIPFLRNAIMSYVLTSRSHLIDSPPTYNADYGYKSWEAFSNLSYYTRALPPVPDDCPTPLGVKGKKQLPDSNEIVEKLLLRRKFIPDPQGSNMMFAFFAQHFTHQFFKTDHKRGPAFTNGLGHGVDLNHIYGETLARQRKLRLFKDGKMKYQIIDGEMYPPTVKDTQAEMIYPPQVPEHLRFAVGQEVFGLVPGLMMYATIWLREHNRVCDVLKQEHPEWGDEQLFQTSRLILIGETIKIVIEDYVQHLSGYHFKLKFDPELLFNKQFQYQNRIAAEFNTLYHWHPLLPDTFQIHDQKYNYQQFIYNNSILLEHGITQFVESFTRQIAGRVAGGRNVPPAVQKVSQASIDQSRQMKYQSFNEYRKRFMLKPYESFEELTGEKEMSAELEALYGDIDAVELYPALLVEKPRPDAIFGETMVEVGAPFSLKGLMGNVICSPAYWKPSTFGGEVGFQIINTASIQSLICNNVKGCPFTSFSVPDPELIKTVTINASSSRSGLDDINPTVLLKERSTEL
Nature of the series: COX-2 enzyme assay. The note with it: 4 μM compound, 1% DMSO; read-out: Percentage of inhibition or binding activity, COX-2 (4 μM). The class given is biochemical. An excerpt:
Cyclooxygenase-2 (COX-2) enzyme is made only in response to injury or infection. It produces prostaglandins involved in inflammation and the immune response. Elevated levels of COX-2 in the body have been linked to cancer.
The procedures used were based on known assays: ACAT (from rat; Ref: Largis et al (1989), J. Lipid. Res., vol 30, 681-689), COX-2 (human; Ref: Riendeau et al (1997), Can. J. Physiol. Pharmacol., vol 75, 1088-1095 and Warner et al (1999), Pro. Natl. Acad. Sci. USA, vol 96, 7563-7568), 5-LO (human; Ref: Carter et al (1991), J. Pharmacol. Exp. Ther., vol 256, no 3, 929-937, and Safayhi et al (2000), Planta Medica, vol 66, 110-113), PBR (from rat; Le Fur et al (1983), Life Sci. USA, vol 33, 449-457), CysLT1 (human; Martin et al (2001), Biochem. Pharmacol., vol 62, no 9, 1193-1200) and CBR (from rat; Damm et al (1978), Res. Comm. Chem. Pathol. Pharmacol., vol 22, 597-600 and Speth et al (1979), Life Sci., vol 24, 351-357).
Binding assays were done for each of Compounds 1-12 and 46 using ACAT, COX-2, 5-LO, PBR and CysLT1 enzymes. The procedures used are based on the respective references mentioned above and the conditions are summarized in Tables 16 (enzyme assays) and 17 (radioligand receptor assays).
(§1) Binding Assays were done at constant concentration of the compound, in 1% DMSO as vehicle, and are specified below each enzyme/receptor type in Table 18. The results are expressed in Table 18 as percentage inhibition. Significance was obtained when a result was ≧50% binding or inhibition (underlined).

The target in a further series is T2, human 5-LO (Homo sapiens, UniProt P09917).
T2 construct: Human peripheral blood […] (PMNs) were isolated through a Ficoll-Paque density gradient; endogenous in cells; host or cells: human peripheral blood mononuclear cells (PBML/PMNs)
T2 sequence (P09917 1-674): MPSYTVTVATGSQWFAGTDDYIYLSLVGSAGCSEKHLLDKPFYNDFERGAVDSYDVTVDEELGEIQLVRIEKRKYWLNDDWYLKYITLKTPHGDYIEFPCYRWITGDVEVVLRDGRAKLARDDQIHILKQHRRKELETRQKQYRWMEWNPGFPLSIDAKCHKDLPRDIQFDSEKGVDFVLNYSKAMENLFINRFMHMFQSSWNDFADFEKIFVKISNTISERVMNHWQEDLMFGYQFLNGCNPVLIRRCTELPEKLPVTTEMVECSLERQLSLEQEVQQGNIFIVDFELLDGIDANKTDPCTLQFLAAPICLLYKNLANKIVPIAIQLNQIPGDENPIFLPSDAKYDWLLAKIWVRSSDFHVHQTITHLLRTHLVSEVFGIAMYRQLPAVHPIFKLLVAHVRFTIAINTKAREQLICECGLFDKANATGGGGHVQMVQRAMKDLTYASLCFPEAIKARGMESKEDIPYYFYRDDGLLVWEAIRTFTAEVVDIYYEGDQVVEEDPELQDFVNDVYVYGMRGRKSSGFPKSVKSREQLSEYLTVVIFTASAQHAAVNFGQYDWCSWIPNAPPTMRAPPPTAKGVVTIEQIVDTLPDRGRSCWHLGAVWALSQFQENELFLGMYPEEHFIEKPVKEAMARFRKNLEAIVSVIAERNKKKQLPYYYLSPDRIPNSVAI
Briefly: 5-LO inhibition assay (EIA quantitation of LTB4). The class given is biochemical. The note with it: 4 μM compound, 1% DMSO; read-out: Percentage of inhibition or binding activity, 5-LO (4 μM). The method, then: 5-Lipoxygenase (5-LO) catalyzes the oxidative metabolism of arachidonic acid to 5-hydroxyeicosatetraenoic acid (5-HETE), the initial reaction leading to formation of leukotrienes.
Human peripheral blood […] (PMNs) were isolated through a Ficoll-Paque density gradient. PMNs were stimulated by addition A23187 (30 μM final concentration). […] Following incubation, samples were neutralized with NaOH and centrifuged. Leukotriene B4 content was measured in the supernatant using an Enzyme Immunosorbant Assay (EIA) assay. The experiment was performed in triplicate.
The procedures used are based on the respective references mentioned above and the conditions are summarized in Tables 16 (enzyme assays) and 17 (radioligand receptor assays).
as §1

The next series concerns SRBC. Briefly: Hemolysis of SRBC. The format is cell-based. As to conditions: concentration necessary to achieve 50% hemolysis of SRBC.

`CC(C)=CCC/C(C)=C/CC/C(C)=C/CN1C(=O)c2cccc(O)c2Nc2c(O)cc(O)cc21` [Compound 1, 10-farnesyl-4,6,8-trihydroxy-5,10-dihydrodibenzo[b,e][1,4]diazepin-11-one]: the inhibition at 4 µM at Cyclooxygenase-2 (COX-2) was determined as 96%; at human 5-LO, 99%. The “Hemolysis (ED50 μg/mL)” value with SRBC came out at 7.6 µg/mL.

As to `CC(C)=CCC/C(C)=C/CC/C(C)=C/CN1C(=O)c2cccc(O)c2N(C)c2c(O)cc(O)cc21` [Compound 2, 10-farnesyl-4,6,8-trihydroxy-5-methyl-5,10-dihydro-dibenzo[b,e][1,4]diazepin-11-one], the values for the inhibition at 4 µM on Cyclooxygenase-2 (COX-2) and on human 5-LO were 92% and 93%, respectively. Besides, the “Hemolysis (ED50 μg/mL)” value in the series on SRBC amounted to 5.12 µg/mL.

Turning to `CC(C)=CCC/C(C)=C/CC/C(C)=C/CN1C(=O)c2cccc(O)c2N(Cc2ccccc2)c2c(O)cc(O)cc21` [Compound 3, 5-benzyl-10-farnesyl-4,6,8-trihydroxy-5,10-dihydro-dibenzo[b,e][1,4]diazepin-11-one], the inhibition at 4 µM at Cyclooxygenase-2 (COX-2) came out at 76%; on human 5-LO, 72%. For the same molecule, the “Hemolysis (ED50 μg/mL)” value with SRBC was over 64 µg/mL.

In the case of `COc1cccc2c1Nc1c(O)cc(O)cc1N(C/C=C(\C)CC/C=C(\C)CCC=C(C)C)C2=O` [Compound 4, 10-farnesyl-6,8-dihydroxy-4-methoxy-5,10-dihydro-dibenzo[b,e][1,4]diazepin-11-one], the inhibition at 4 µM amounted to 78% on Cyclooxygenase-2 (COX-2) and 98% on human 5-LO. For the same molecule, the “Hemolysis (ED50 μg/mL)” value in the series with SRBC is over 64 µg/mL.

Regarding `COc1cc(O)cc2c1Nc1c(O)cccc1C(=O)N2C/C=C(\C)CC/C=C(\C)CCC=C(C)C` [Compound 5, 10-farnesyl-4,8-dihydroxy-6-methoxy-5,10-dihydro-dibenzo[b,e][1,4]diazepin-11-one], the results for the inhibition at 4 µM at Cyclooxygenase-2 (COX-2) and on human 5-LO were 63% and 98%, respectively. The “Hemolysis (ED50 μg/mL)” value in the series with SRBC is over 64 µg/mL.

Turning to `COc1cc(OC)c2c(c1)N(C/C=C(\C)CC/C=C(\C)CCC=C(C)C)C(=O)c1cccc(O)c1N2` [Compound 6, 10-farnesyl-4-hydroxy-6,8-dimethoxy-5,10-dihydro-dibenzo[b,e][1,4]diazepin-11-one], the inhibition at 4 µM came out at 45% on Cyclooxygenase-2 (COX-2) and 71% on human 5-LO. Moreover, the “Hemolysis (ED50 μg/mL)” value with SRBC is over 64 µg/mL.

As for `COc1cccc2c1Nc1c(OC)cc(O)cc1N(CC=C(C)CCC=C(C)CCC=C(C)C)C2=O` [Compound 7, 10-farnesyl-8-hydroxy-4,6-dimethoxy-5,10-dihydro-dibenzo[b,e][1,4]diazepin-11-one], the inhibition at 4 µM on Cyclooxygenase-2 (COX-2) turned out to be 26%; on human 5-LO it was 63%. Further, the “Hemolysis (ED50 μg/mL)” value in the series on SRBC was over 64 µg/mL.

Regarding `COc1cc(OC)c2c(c1)N(CC=C(C)CCC=C(C)CCC=C(C)C)C(=O)c1cccc(OC)c1N2` [Compound 8, 10-farnesyl-4,6,8-trimethoxy-5,10-dihydro-dibenzo[b,e][1,4]diazepin-11-one], the inhibition at 4 µM is 19% at Cyclooxygenase-2 (COX-2) and -13% on human 5-LO.

On to `CC(=O)Oc1cc(OC(C)=O)c2c(c1)N(CC=C(C)CCC=C(C)CCC=C(C)C)C(=O)c1cccc(O)c1N2` [Compound 9, 6,8-diacetoxy-10-farnesyl-4-hydroxy-5,10-dihydro-dibenzo[b,e][1,4]diazepin-11-one], for which the values for the inhibition at 4 µM on Cyclooxygenase-2 (COX-2) and on human 5-LO were 44% and 96%, respectively. Besides, in the series on SRBC, the “Hemolysis (ED50 μg/mL)” value was over 64 µg/mL.

In the case of `CC(=O)Oc1cccc2c1Nc1c(OC(C)=O)cc(O)cc1N(CC=C(C)CCC=C(C)CCC=C(C)C)C2=O` [Compound 10, 4,6-diacetoxy-10-farnesyl-8-hydroxy-5,10-dihydro-dibenzo[b,e][1,4]diazepin-11-one], the inhibition at 4 µM at Cyclooxygenase-2 (COX-2) amounted to 45%; on human 5-LO it was 97%. Further, the “Hemolysis (ED50 μg/mL)” value in the series with SRBC was over 64 µg/mL.

Regarding `CC(=O)Oc1cc(O)c2c(c1)N(CC=C(C)CCC=C(C)CCC=C(C)C)C(=O)c1cccc(OC(C)=O)c1N2` [Compound 11, 4,8-diacetoxy-10-farnesyl-6-hydroxy-5,10-dihydro-dibenzo[b,e][1,4]diazepin-11-one], the inhibition at 4 µM is 57% on Cyclooxygenase-2 (COX-2) and 97% at human 5-LO. In the series with SRBC, the “Hemolysis (ED50 μg/mL)” value is 9.8 µg/mL.

Consider `CC(=O)Oc1cc(OC(C)=O)c2c(c1)N(CC=C(C)CCC=C(C)CCC=C(C)C)C(=O)c1cccc(OC(C)=O)c1N2` [Compound 12, 4,6,8-triacetoxy-10-farnesyl-5,10-dihydro-dibenzo[b,e][1,4]diazepin-11-one], for which the inhibition at 4 µM at Cyclooxygenase-2 (COX-2) was found to be 30%; on human 5-LO it was 86%. Besides, in the series with SRBC, the “Hemolysis (ED50 μg/mL)” value is over 64 µg/mL.

With `CC(C)CCCC(C)CCCC(C)CCN1C(=O)c2cccc(O)c2Nc2c(O)cc(O)cc21` (centres unmarked) [Compound 46, 10-(3,7,11-trimethyldodecyl)-4,6,8-trihydroxy-5,10-dihydro-dibenzo[b,e][1,4]diazepin-11-one], the values for the inhibition at 4 µM on Cyclooxygenase-2 (COX-2) and on human 5-LO were 95% and 65%, respectively. For the same molecule, the “Hemolysis (ED50 μg/mL)” value with SRBC is 13.9 µg/mL.
